Assay results published in US20110245323A1, “RIG-Like Helicase Innate Immunity Inhibits VEGF-Induced Tissue Responses” (Yale University, priority 2006, published 2011).
Entries after “also recorded” stand apart in the source; their conditions may differ.

Legend:
Format in all cases: in vivo, mouse
[1] = system: OVA sensitized and challenged mice; assay: Ovalbumin (OVA) sensitization and challenge Th2 inflammation model
Experimental: Mice were sacrificed using intraperitoneal ketamine/xylazine injection and the trachea was cannulated and perfused with two 0.9 nil aliquots of cold saline. The cellular contents and BAL fluid were separated by centrifugation, the BAL cell number was quantitated and cell differential was assessed. The BAL fluid was stored in aliquots at −80° C.
ELISA assay kits for VEGF and IL-13 were purchased from R&D Systems (Minneapolis, Minn.).
OVA sensitization (with alum) and aerosol OVA challenge were undertaken as previously described (Lee et al., 2008, Am J Respir Cell Mol Biol 39:739-746; Lee et al., 2009, J Exp Med 206:1149-1166). The responses in mice that had been treated with Poly(I:C) or vehicle 24 hours before the aerosol challenge were compared. The BAL and tissue responses were evaluated 24 hours after antigen challenge.

PKR = assay: Poly(I:C) regulation of VEGF responses in PKR null VEGF Tg+ mice; conditions: angiogenesis and dye extravasation
Text: TLR3^−/−-mice were a gift from Dr. Richard A. Flavell (Yale University), MAVS null mice were a gift from Dr Zijian J. Chen (U of Texas Southwestern) (Sun et al., 2006, Immunity 24:633-642), double stranded RNA-dependent protein kinase null mutant mice (PKR^−/−) were a gift from Dr. Bryan R. G. Williams (Cleveland Clinic Foundation) (Yang et al., 1995, Embo J 14:6095-6106) and IFNAR1 null mice were obtained from Dr. Richard Enelow (Dartmouth). These mice were bred with the VEGF Tg+ mice to generate transgenic mice with wild type (+/+) or null (−/−) TLR3, MAVS, PKR or IFNAR1 loci. Thus, in each given experiment, the effects in transgene negative (Tg−) and transgenic (Tg+) mice with WT and null TLR3, MAVS, PKR or IFNAR1 loci were compared.
(§1) To define the effects of Poly(I:C) a number of protocols were employed. In most experiments, a pretreatment-2 week protocol was employed. In these experiments, WT and Tg+ mice were treated with Poly(I:C) (30 μg in 50 lambda unless otherwise indicated; Amersham Biosciences, N.J.) or vehicle control via nasal aspiration and transgene activation was accomplished via the administration of dox (0.5 mg/ml) in the animal's drinking water 24 hours later. The Poly(I:C) was administered every other day and the dox was administered continuously for up to 2 weeks.

[2] = system: CC10-rtTA-VEGF165 transgenic mice; assay: VEGF-induced mucus metaplasia (PAS staining, BAL MUC5AC); conditions: for VEGF-induced mucus metaplasia (PAS stains, BAL MUC5AC accumulation): vs vehicle
Experimental: as §1
Lastly, in selected experiments post-transgene activation protocols were employed. In these experiments dox was administered for 2 days or 2 weeks. The Poly(I:C) was then administered via intranasal aspiration every other day for 2 weeks as disclosed elsewhere herein. In selected pre-treatment and post-transgene activation experiments, unmethylated CpG (CpG-B) (Keck Center, Yale University) was also employed at similar doses. At the end of these intervals, assessments of angiogenesis (anti-CD31 immunohistochemistry), vascular permeability (Evan's blue dye extravasation, wet to dry lung weight measurements, BAL protein concentration), BAL and tissue inflammatory cell infiltration and mucus metaplasia (periodic acid-Schiff (PAS) staining, MUC5AC immunoblotting) were undertaken. In all cases experiments were designed to compare Tg− and Tg+ mice on normal water and Tg− and Tg+ mice on dox water.
The lungs were removed en bloc as described elsewhere herein, inflated at 25 cm pressure with PBS containing 0.5% low melting point agarose gel, fixed in Streck solution (Streck Laboratories, La Vista, Nebr.), embedded in paraffin, sectioned and stained. Hematoxylin and eosin and PAS stains were performed in the Research Histology Laboratory of the Department of Pathology at the Yale University School of Medicine. Pulmonary hemorrhage was evaluated by quantitating BAL red blood cell number with a Coulter counter (Beckman Coulter).
The levels of MUC5AC, the major airway mucin in BAL fluids, were assessed as previously described (Lee et al., 2008, Am J Respir Cell Mol Biol 39:739-746). In these evaluations, 0.1 ml of BAL fluid was slot blotted onto nitrocellulose membranes using a Minifold II slot blot apparatus (Schleicher & Schuell). After air-drying, the membrane was blocked with 5% skim milk, washed three times and incubated overnight at 4° C. with a monoclonal antibody against Mucin-5AC (45M1; NeoMarkers, Union City, Calif.). After washing, the membranes were incubated for 1 hour at room temperature with horseradish peroxidase-conjugated anti-mouse immunoglobulin (Ig)-G (Pierce). Immunoreactive mucins were detected using a chemiluminescent procedure (ECL Plus Western blotting detection system, Amersham Biosciences) according to instructions from the manufacturer.

“polyinosinic-polycytidylic acid [Poly(I:C)]” was tested, and the “OVA-induced cytokine response (BAL IL-13)” value [1] was “significant decrease”, the “OVA-induced inflammatory response (BAL total cell, macrophage, eosinophil, lymphocyte recovery)” value ([1]; Poly(I:C) 24 hours before aerosol challenge) was “significant decrease; also recorded: abrogated” and the “effects of Poly(I:C) in PKR null mice” value (PKR) was “not significantly altered”. For the same substance, the VEGF-stimulated mucus secretion ([2]; Tg+ mice, pretreatment) was “decreased”, the “VEGF-induced mucus metaplasia (PAS stains, BAL MUC5AC accumulation)” value ([2]; Tg+ mice, pretreatment) was “inhibited” and the “VEGF-induced mucus metaplasia (PAS stains, BAL MUC5AC accumulation)” value ([2]; Tg+ mice, pretreatment, listed as poly(I:C)) was “significantly decreased”. The “VEGF-induced mucus metaplasia, delayed administration” value ([2]; given 48 hours or 14 days after dox-induced transgene activation) was “significant inhibition”, the “lowest dose with significant inhibition of VEGF-induced mucus metaplasia” value ([2]; pretreatment) was 5 µg and the “dose with maximal inhibition of VEGF-induced mucus metaplasia” value ([2]; pretreatment, highest dose tested) was 30 µg.
